The subject of assay [1] is endothelial cells. As to the kind of experiment: I125-VEGF binding to endothelial cells in the presence of peptide. It is filed as cell-based. On the procedure: (§1) 10000 cells were incubated in binding buffer containing 20 mM Hepes, 0.1% BSA and I^125-VEGF (12 ng/ml) for 3 h on ice.
(§2) In order to characterize the effect of the peptides on VEGF binding to endothelial and melanoma cells, the cells were incubated with various peptides (720 μg/ml) in the presence of I^125-VEGF (12 ng/ml) (FIG. 2). Peptide #237 increased VEGF binding to endothelial as well to melanoma cells. 10000 cells were incubated in binding buffer containing 20 mM Hepes, 0.1% BSA and I^125-VEGF (12 ng/ml) for 3 h on ice. Following 3 washings, the radioactive levels were determined by gamma counter. An increase of more than 25 times in I^125-VEGF binding was observed when peptide #237 was added to both kinds of cells. The other prominin-1 peptides examined had no effect on VEGF binding to endothelial cells.
Each of these peptides were tested for VEGF binding to endothelial cells and compared to peptide #237 at varying dilutions. The results are indicated herein in FIG. 7.
The inventors also investigated which amino acid residues in peptide #237 are important for the various angiogenic and VEGF related binding activity described herein. To achieve this, the inventors singly changed each of the 12 amino acid residues in peptide #237 to alanine and performed experiments examining the effect of the alanine substitution at various positions on endothelial cell binding to VEGF. A total of 12 alanine substituted peptides were made and tested: Ala-1, Ala-2, Ala-3, Ala-4, Ala-5, Ala-6, Ala-7, Ala-8, Ala-9, Ala-10, Ala-11, Ala-12, (SEQ. ID. NOS. 38-41, 3, 11, 42-47) wherein the number indicate the position where the alanine substitution occurred. In addition, a “flip #237” peptide having the sequence AAVVTTTQRQVRD (SEQ. ID. NO. 22) was also made and studied.

Assay [2] concerns ear wound. The assay can be described thus: ear punch wound healing model. Conditions: for wound closure versus control (peptide #237): intraperitoneal treatment, C57BL mouse. It is filed as in vivo, mouse.
For assay [3], the system named is ischemic hind limb blood flow. As to the kind of experiment: hind limb ischemia model, local injection or pump (Example 11). The assay is classed as in vivo, mouse. The following applies: after 48 h. On the procedure: FIG. 10A are laser doppler images showing the effects of direct injection of either saline or peptide #237 to the ischemic site (800 μg) in a mouse hind limb ischemia model. Mice were ligated in both of their femoral arteries to simulate hind limb ischemia. The blood flow in mice was analyzed by machine for each mouse before and immediately after the procedure to evaluate if the femoral was ligated properly. (Note that amino acid 12 of SEQ. ID. NO: 1 is alanine; this amino acid was substituted with […] in the Ala-12 substitution variant.)
FIG. 10B are laser doppler images showing the effects of injection by pumps of either the saline or peptide #237 to the ischemic site (800 μg) in a mouse hind limb ischemia model. Just the left femoral artery was ligated to simulate hind limb ischemia. Mice from group B were treated systemically by pumps that were implanted to the mouse's back one day prior to the procedure. […] The blood flow was analyzed by machine for each mouse before and immediately after the procedure to evaluate if the femoral was ligated properly. […]
The angiogenic effects of peptide #237 were investigated using the mouse hind limb ischemia model. […] The blood flow was analyzed by Laser Doppler perfusion imagery machine for each mouse before and immediately after the procedure to evaluate if the femoral was ligated properly. […]

Assay [4] concerns B16-F10 melanoma cells. The assay can be described thus: I125-VEGF binding to melanoma cells in the presence of peptide. It is filed as cell-based. Conditions: peptide 720 μg/ml, I125-VEGF 12 ng/ml, 3 h on ice. On the procedure: as §1, §2
The subject of assay [5] is ear wound neovascularization. As to the kind of experiment: ear wound neovascularization model. It is filed as in vivo, nude mouse. Conditions: matrigel containing 180 μg peptide daily for 5 days; 2.25 mm punch; versus plain matrigel. On the procedure:
Microvascular in-growth into damaged tissue is an essential component of the normal healing process. In fact, wound therapy is often aimed at promoting neovascularization. The model consists of wounding the dorsal aspect of the ear of a nude mouse. A circular punch was used to create a standardized wound on a nude mouse ear. Constant diameter of wound is given by the size of the punch (2.25 mm), and the ears were treated daily with plain matrigel (FIG. 6A) or matrigel containing peptide #237 (180 μg) (FIG. 6B) for 5 days. […] In order to evaluate the wound neovascularization, the mice were inoculated by dextran-FITC which specifically labeled the endothelial cells, immediately after anesthetizing them.

For assay [6], the system named is ischemic hind limb blood flow. As to the kind of experiment: hind limb ischemia model, intraperitoneal administration (Example 12). It is filed as in vivo, mouse. The following applies: for limb perfusion: intraperitoneally immediately following femoral artery occlusion, within three to six days. On the procedure: Mice were ligated in one of their femoral arteries (the […]) to simulate hind limb ischemia. The blood flow was analyzed by machine for each mouse before and immediately after the procedure to evaluate if the femoral was ligated properly. Blood flow was compared with the non-operated leg by a laser Doppler imager. […] The ischemic limb is seen as the limb on left side in the laser Doppler images.
Representative evaluation of the ischemic (left side of each image) and non-ischemic (right side of each image) hind limbs, immediately after, and on days 4 and 14 after surgery. In FIG. 11, the white areas indicate normal perfusion with normal blood circulation and black areas indicate no blood flow in the ischemic left hind limb. […] Dark shaded areas within the white areas located at the distal ends of the limbs indicate […].
The blood flow of the ischemic hind limb is expressed as the ratio between the perfusion of the ischemic limb and the uninjured limb in FIG. 12.

Assay [7] has as its system endothelial cells. As to the kind of experiment: Matrigel assay of endothelial cell migration in vivo (FACS of matrigel liberated cells). The arrangement: species or system C57bl mice. Conditions: day 6; for endothelial cells among matrigel liberated cells (FACS, CD31): Matrigel with 500 ng VEGF, with or without 180 μg #237. On the procedure:
On day 6, animals were sacrificed and fluorescence-activated cell sorting (FACS) analysis was used for determination of the matrigel liberated cells. In order to distinguish the endothelial cells from hematopoietic cells, the cells were incubated with two antibodies CD31-PE and CD45-APC which are specific to endothelial cells and hematopoietic cells respectively.

For assay [8], the system named is cornea neovascularization. As to the kind of experiment: corneal micropocket assay with VEGF pellet. Conditions: pellet 160 ng VEGF 165 + 1.3 ug #237; 5 days. The assay is classed as in vivo, mouse. On the procedure:
Vigorous vessel in-growth from the limbus at 5 days was recorded as a positive response.
In order to evaluate the modulating effect of peptide #237 on the angiogenesis process, a corneal micropocket assay was performed. Two kinds of pellets were created, both containing 160 ng carrier-free recombinant human VEGF 165 (R&D Systems, Minneapolis, Minn.), one of which contains 1.3 ug of #237 peptide. The pellets were implanted into micropockets created in the cornea of two groups of anesthetized mice (n=4). Through the use of standardized slow-release pellets, a predictable angiogenic response is generated over the course of 5 days and then quantified. The area of neovascularization was calculated as vessel area, which is calculated as the product of vessel length measured from the limbus and clock hours around the cornea, using the following equation: vessel area (mm^2)=[clock hours×vessel length (mm)×0.2 mm]. […] The in vivo experiment confirms that the peptide stimulates cell proliferation, and is therefore a good candidate to induce angiogenesis.

The record followed here is US10286032B2, “Pro-angiogenic fragments of prominin-1 and uses thereof” (Children's Medical Center Corporation, priority 2010, dated 2019).

With DAVQRQTTTVVA [Ala-2], the “VEGF binding to endothelial cells over control levels (absence of any peptide)” value in assay [1] was “promote VEGF binding to endothelial cells over control levels”.
As for DRAQRQTTTVVA [Ala-3], in assay [1], the “VEGF binding to endothelial cells over control levels (absence of any peptide)” value is listed as “promote VEGF binding to endothelial cells over control levels”.
Consider DRVARQTTTVVA [Ala-4], for which the “VEGF binding to endothelial cells over control levels (absence of any peptide)” value in assay [1] is listed as “promote VEGF binding to endothelial cells over control levels”.
Take DRVQAQTTTVVA [Ala-5]: in assay [1], the “VEGF binding to endothelial cells over control levels (absence of any peptide)” value is recorded as “promote VEGF binding to endothelial cells over control levels”. In assay [1] (alanine substitution screen), the “ability of endothelial cells to bind VEGF compared to original #237” value is “more than twice”.
Turning to DRVQMQTTTVVA [#237-M], the “wound closure versus control (peptide #237)” value (from here on “wound closure versus control”) in assay [2] is given as “significantly more wound closure”. In addition, the “VEGF binding to endothelial cells over control levels (absence of any peptide)” value in assay [1] was “promote VEGF binding to endothelial cells over control levels”.
As to DRVQQQTTTVVA [#237-Q], the “wound closure versus control” value in assay [2] was “significantly more wound closure”. Further, the “VEGF binding to endothelial cells over control levels (absence of any peptide)” value in assay [1] is listed as “promote VEGF binding to endothelial cells over control levels”.
Regarding DRVQRATTTVVA [Ala-6], in assay [1], the “VEGF binding to endothelial cells over control levels (absence of any peptide)” value was “promote VEGF binding to endothelial cells over control levels”.
For the substance DRVQRQATTVVA [Ala-7], the “VEGF binding to endothelial cells over control levels (absence of any peptide)” value in assay [1] is recorded as “promote VEGF binding to endothelial cells over control levels”.
For the substance “DRVQRQTTTVVA (listed as Homo sapiens) [#237]”, the “recovery of the blood flow in the ischemic site” value in assay [3] (local injection to the ischemic site (800 ug)) and in assay [3] (slow release via pump 0.5 ug/hour) was “complete recovery of the blood flow” in each case. Further, the “increase in I125-VEGF binding” value is reported as “more than 25 times” in assay [4] and “more than 25 times” in assay [1] (endothelial cells, peptide 720 μg/ml, I125-VEGF 12 ng/ml, 3 h on ice). In assay [5], the “neovascularization around the ear wound site” value is “significantly increased the neovascularization”. For the same substance, in assay [6] (days 4 and 14 after surgery), the “blood flow recovery compared to saline treated mice (laser Doppler images)” value is listed as “increased blood flow recovery”. Further, the limb perfusion entry in assay [6] is “significantly improves limb perfusion”. In assay [2] (MATRIGEL containing peptide daily for 14 days, day 14, 1 mm wound), the “wound area versus untreated mice” value was “significantly smaller”. Further, the “endothelial cells relative to VEGF alone” value in assay [7] (180 ug #237 added to the VEGF) was “six times more”. In addition, in assay [7], the “endothelial cells among matrigel liberated cells (FACS, CD31)” value stood at 0.42%. Besides, the “increase in vessel density versus pellet without peptide” value in assay [8] stood at 53%. Besides, in assay [1], the “VEGF binding to endothelial cells over control levels (absence of any peptide)” value is “promote VEGF binding to endothelial cells over control levels”.
Take “DRVQRQTTTVVG [Ala-12, glycine substitution at position 12, which is naturally alanine]”: the “VEGF binding to endothelial cells over control levels (absence of any peptide)” value in assay [1] is listed as “promote VEGF binding to endothelial cells over control levels”.
As for DRVQVQTTTVVA [#237-V], the limb perfusion entry in assay [6] is recorded as “significantly improves limb perfusion”. Further, the “wound closure versus control” value in assay [2] was “significantly more wound closure”. In addition, the “VEGF binding to endothelial cells over control levels (absence of any peptide)” value in assay [1] is given as “promote VEGF binding to endothelial cells over control levels”.
RVQRQTTTVVAG: in assay [1], the “VEGF binding to endothelial cells over control levels (absence of any peptide)” value was “promote VEGF binding to endothelial cells over control levels”.
Regarding VEGF, the “endothelial cells among matrigel liberated cells (FACS, CD31)” value in assay [7] is 0.07%.
As to VQRQTTTVVAGI, the “VEGF binding to endothelial cells over control levels (absence of any peptide)” value in assay [1] is “promote VEGF binding to endothelial cells over control levels”.
